Measured values reported in patent EP0516015A1, “Substituted decarestrictines, methods for their preparation and use thereof” (HOECHST AKTIENGESELLSCHAFT, priority 1991, dated 1992).
In brackets after ≈: the same amount, converted by molar mass.

Columns and labels:
[1] = test system: Cholesterinbiosynthese; assay: Inhibition of cholesterol biosynthesis from [14C] sodium acetate in HEP-G2 cell monolayers; format: cell-based; settings: Homo sapiens, HepG2, HEP-G2-Zellen, 1 h preincubation, 3 h with [14C] sodium acetate, read-out: Cholesterin in Prozent der Kontrolle; for activity at 0.01 µM: Konzentration 10⁻⁸ M
Source text: Monolayer von HEP-G2-Zellen in lipoproteinfreiem Nährmedium werden mit entsprechenden Konzentrationen der zu prüfenden Substanzen aus den Beispielen 1, 3, 4, 5, 6, 8 und 15 eine Stunde vorinkubiert. Nach Zugabe der ¹⁴C-markierten Biosynthesevorstufe [¹⁴C]Natriumacetat wird die Inkubation für 3 Stunden fortgesetzt. Danach wird ein Teil der Zellen alkalisch verseift, bei vorheriger Zugabe eines internen Standards von ³H-Cholesterin. Die Lipide der verseiften Zellen werden mit einem Gemisch aus Chloroform-Methanol extrahiert. Dieses Lipidgemisch wird nach Zusatz von Trägercholesterin präparativ dünnschichtchromatographisch aufgetrennt, die Cholesterinbande nach Anfärbung isoliert und die aus dem ¹⁴C-Precursor gebildete Menge ¹⁴C-Cholesterin szintigraphisch bestimmt. In einem aliquoten Teil der Zellen wurde Zellprotein bestimmt, sodaß die in der Zelleinheit pro mg Zellprotein aus ¹⁴C-Vorläufer gebildete Menge ¹⁴C-Cholesterin berechnet werden kann. Zum Vergleich für die Hemmwirkung eines zugesetzten Prüfpräparates dient die Kontrolle, so daß direkt die Hemmung der Cholesterinbiosynthese bei einer bestimmten molaren Konzentration des Prüfpräparates im Medium angegeben werden kann. In aliquoten Anteilen der Zellkultur wird die Intaktheit der Zellkultur und die fehlende Zellschädigung durch Präparateeinwirkung morphologisch (Lichtmikroskopie) beurteilt und biochemisch durch Bestimmung der Laktat-Dehydrogenase Ausschüttung im Inkubationsmedium gemessen. Als Standardpräparat wurde ®Lovastatin (Merck-Sharp-Dohm) benutzt.

[2] = in vitro; settings: hela or vero cells
[3] = test system: Herpes I; assay: Antiviral activity in cell culture (CPE, neutral red uptake); format: cell-based; settings: HeLa or Vero cells, 72 h, MHK = concentration at which about 50 % of the cells survived the infection
[4] = test system: Vaccina; assay: microbe, parasite or virus in culture; format: cell-based; settings: 72 h, read-out: MHK
[5] = test system: Herpes II; assay: Antiviral activity in cell culture (CPE, neutral red uptake); format: cell-based; settings: HeLa or Vero cells, 72 h, MHK = concentration at which about 50 % of the cells survived the infection
[6] = test system: Rhinovirus II; assay: as above; format: cell-based; settings: Enterovirus; Rhino. II; HeLa or Vero cells, 72 h; MHK = concentration at which about 50 % of the cells survived the infection
[7] = test system: Influenza A; assay: microbe, parasite or virus in culture; format: cell-based; settings: 72 h, read-out: MHK

Which activity at 0.01 µM [1] does the source give for CC[C@H](C)C(=O)O[C@H]1C[C@@H](C)C=C2C=C[C@H](C)[C@H](CC[C@@H]3C[C@@H](O)CC(=O)O3)[C@H]21 [Lovastatin, reference compound] here?
The activity at 0.01 µM was 55%.

Which results are given for CC(=O)OC1/C=C/C(OC(C)=O)C(OC(C)=O)CC(=O)OC(C)C1 (stereo not shown) [Verbindung 6, 10-Methyl-1-oxa-4,5,8-triacetyloxy-6-cyclodecen-2-on]?
MNTC at 72 h [2]: 133 µg/mL; activity at 10 µM ([1]; Konzentration 10⁻⁵ M): 32%; activity at 0.1 µM ([1]; Konzentration 10⁻⁷ M): 30%; EC50 [3]: 0.55 µg/mL (≈ 1.61 µM); EC50 [4]: 0.49 µg/mL (≈ 1.43 µM); EC50 [5]: 0.55 µg/mL (≈ 1.61 µM); EC50 [6]: 44.4 µg/mL (≈ 130 µM); EC50 [7]: 14 µg/mL (≈ 40.9 µM)

With CC1CC(O)C2OC2C(O)C(O)CC(=O)O1 (stereo not shown) [Verbindung 5, 2-Carbonyl-10-methyl-1-oxa-4,5,8-trihydroxy-6-cyclodecenoxid] as the compound, how does the activity at 0.01 µM [1] read?
Its activity at 0.01 µM is 33%.

With CC1CC(OC=O)C=CC(O)C(O)CC(=O)O1 (stereo not shown) [Verbindung 8, 4,5-Dihydroxy-8-formyl-oxy-10-methyl-1-oxa-6-cyclodecen-2-on] as the compound, how does the activity at 0.01 µM [1] read?
Its activity at 0.01 µM is 67%.

With CC(=O)OC1CCC(O)C(O)CC(=O)OC(C)C1 (stereo not shown) [Verbindung 4, 8-Acetyloxy-4,5-dihydroxy-10-methyl-1-oxa-cyclodecan-2-on] as the compound, how does the activity at 0.01 µM [1] read?
The activity at 0.01 µM was 45%.

With CC1CC(O[C@H]2O[C@H](COCc3ccccc3)[C@@H](OCc3ccccc3)[C@H](OCc3ccccc3)[C@H]2OCc2ccccc2)CCC2OC(C)(C)OC2CC(=O)O1 (stereo partly drawn) [Verbindung 1, 4,5-Dihydroxy-O-isopropyliden-10-methyl-1-oxa-8(2,3,4,6-tetra-O-benzyl-α-D-glucopyranosyl-oxy)-2-cyclodecanon] as the compound, how does the activity at 0.01 µM [1] read?
The activity at 0.01 µM was 41%.

Which activity at 0.01 µM [1] does the source give for CC1CC(O)CCC(O)C(O)CC(=O)O1 (stereo not shown) [Verbindung 15, 10-Methyl-1-oxa-4,5,8-trihydroxy-cyclodecan-2-on] here?
The activity at 0.01 µM was 73%.

Which activity at 1 µM ([1]; Konzentration 10⁻⁶ M) does the source give for COC1C=CC(OC)C(OC)CC(=O)OC(C)C1 (stereo not shown) [Verbindung 3, 10-Methyl-4,5,8-trimethoxy-1-oxa-6-cyclodecen-2-on] here?
Its activity at 1 µM is 28%.

And the activity at 0.01 µM [1]?
Its activity at 0.01 µM is 33%.
